US10160755B2 (Plexxikon Inc., priority 2015, dated 2018)

What was measured:
FLT3-ITD = biological target: T1, FLT3-ITD (Homo sapiens, UniProt P36888); experiment: FLT3-ITD biochemical kinase assay (AlphaScreen)
T1 construct: FLT3-ITD; Invitrogen #PV6190
T1 sequence (P36888 1-993): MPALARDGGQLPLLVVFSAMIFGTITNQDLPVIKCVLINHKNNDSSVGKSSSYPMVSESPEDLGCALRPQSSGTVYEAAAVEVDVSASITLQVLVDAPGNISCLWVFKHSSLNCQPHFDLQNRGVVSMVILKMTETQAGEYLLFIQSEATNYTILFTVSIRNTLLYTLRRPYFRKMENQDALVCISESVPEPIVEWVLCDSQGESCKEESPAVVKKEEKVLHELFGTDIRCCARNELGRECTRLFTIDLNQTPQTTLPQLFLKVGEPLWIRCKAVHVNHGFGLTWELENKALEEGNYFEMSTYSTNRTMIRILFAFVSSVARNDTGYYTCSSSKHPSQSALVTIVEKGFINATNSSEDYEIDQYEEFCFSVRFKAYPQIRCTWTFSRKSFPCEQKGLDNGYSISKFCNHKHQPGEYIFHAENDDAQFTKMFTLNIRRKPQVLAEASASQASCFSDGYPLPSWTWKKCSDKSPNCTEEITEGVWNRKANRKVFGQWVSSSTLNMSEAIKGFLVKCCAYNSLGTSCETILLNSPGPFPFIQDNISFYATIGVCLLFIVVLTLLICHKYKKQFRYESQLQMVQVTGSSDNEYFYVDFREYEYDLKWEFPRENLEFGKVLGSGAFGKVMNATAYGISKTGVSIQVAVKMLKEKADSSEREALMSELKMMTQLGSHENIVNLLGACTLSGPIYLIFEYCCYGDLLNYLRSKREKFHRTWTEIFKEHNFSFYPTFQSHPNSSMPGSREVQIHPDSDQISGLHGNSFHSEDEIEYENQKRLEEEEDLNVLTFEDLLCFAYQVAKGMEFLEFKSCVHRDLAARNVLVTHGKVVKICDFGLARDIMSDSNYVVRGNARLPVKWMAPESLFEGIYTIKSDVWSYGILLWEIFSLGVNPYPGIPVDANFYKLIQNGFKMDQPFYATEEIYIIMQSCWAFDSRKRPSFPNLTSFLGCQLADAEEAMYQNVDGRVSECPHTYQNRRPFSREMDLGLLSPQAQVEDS
Outline: (§1)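 IC50 values reflect loss of AlphaScreen proximity signal (excitation 680 nm, emission 580 nm) from tyrosine phosphorylation of a biotinylated poly(Glu4-Tyr) substrate at 30 nM. ATP was 10 μM for the D835Y mutant and 100 μM for ITD. Detection used PY20 acceptor beads.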

FLT3-D835Y = biological target: T2, FLT3-D835Y (Homo sapiens, UniProt P36888, D835Y); experiment: FLT3-D835Y biochemical kinase assay (AlphaScreen)
T2 construct: purchased Invitrogen PV3967
T2 sequence (P36888 27-993 D835Y): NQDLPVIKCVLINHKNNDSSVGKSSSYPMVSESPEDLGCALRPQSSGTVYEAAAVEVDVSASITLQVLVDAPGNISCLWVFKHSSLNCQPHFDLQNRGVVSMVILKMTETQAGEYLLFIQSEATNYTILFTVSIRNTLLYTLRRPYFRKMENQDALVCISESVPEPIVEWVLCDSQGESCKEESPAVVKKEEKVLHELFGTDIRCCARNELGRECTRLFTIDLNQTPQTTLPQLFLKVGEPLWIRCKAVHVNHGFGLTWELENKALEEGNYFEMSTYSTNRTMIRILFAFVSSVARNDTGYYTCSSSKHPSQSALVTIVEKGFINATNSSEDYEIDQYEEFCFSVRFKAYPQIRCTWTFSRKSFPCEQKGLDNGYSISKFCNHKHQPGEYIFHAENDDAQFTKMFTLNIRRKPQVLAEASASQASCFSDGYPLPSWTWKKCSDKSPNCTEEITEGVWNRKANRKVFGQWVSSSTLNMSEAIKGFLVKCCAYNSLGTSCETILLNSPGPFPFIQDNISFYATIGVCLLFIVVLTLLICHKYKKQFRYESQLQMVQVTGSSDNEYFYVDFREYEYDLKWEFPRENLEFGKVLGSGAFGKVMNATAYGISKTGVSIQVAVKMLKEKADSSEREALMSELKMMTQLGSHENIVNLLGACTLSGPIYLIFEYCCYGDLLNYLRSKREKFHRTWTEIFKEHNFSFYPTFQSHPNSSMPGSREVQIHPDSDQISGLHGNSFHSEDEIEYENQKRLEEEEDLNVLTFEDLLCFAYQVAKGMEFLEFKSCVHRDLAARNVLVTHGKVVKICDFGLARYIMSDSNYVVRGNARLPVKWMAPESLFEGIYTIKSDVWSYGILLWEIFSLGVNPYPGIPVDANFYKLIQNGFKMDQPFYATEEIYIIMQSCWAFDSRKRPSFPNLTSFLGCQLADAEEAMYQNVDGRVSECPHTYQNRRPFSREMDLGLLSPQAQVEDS
Outline: as §1

Row | Structure (SMILES) | IC50 (FLT3-ITD) [µM] | IC50 (FLT3-D835Y) [µM]
1 | O=S(=O)(c1cccc(-c2cnc3[nH]cc(-c4ccc5ncn(C6CCCNC6)c5c4)c3n2)c1)N1CCCC1 (stereo not shown) [P-237, 7-[3-(3-piperidyl)benzimidazol-5-yl]-2-(3-pyrrolidin-1-ylsulfonylphenyl)-5H-pyrrolo[2,3-b]pyrazine] | 0.0001 to 1 | 0.0001 to 1
2 | CC(C)(C)n1cnc2ccc(-c3c[nH]c4ncc(-c5cccc(N6CCCCS6(=O)=O)c5)nc34)cc21 [P-227, 2-[3-[7-(3-tert-butylbenzimidazol-5-yl)-5H-pyrrolo[2,3-b]pyrazin-2-yl]phenyl]thiazinane 1,1-dioxide] | 0.0001 to 1 | 0.0001 to 1
3 | CN(c1cccc(-c2cnc3[nH]cc(-c4ccc5ncn(C)c5c4)c3c2)c1)S(C)(=O)=O [P-120, N-methyl-N-[3-[3-(3-methylbenzimidazol-5-yl)-1H-pyrrolo[2,3-b]pyridin-5-yl]phenyl]methanesulfonamide] | 0.0001 to 1 | 0.0001 to 1
4 | O=S1(=O)CCCCN1c1cccc(-c2cnc3[nH]cc(-c4ccc5ncn(C6CCCNC6)c5c4)c3c2)c1 (stereo not shown) [P-224, 2-[3-[3-[3-(3-piperidyl)benzimidazol-5-yl]-1H-pyrrolo[2,3-b]pyridin-5-yl]phenyl]thiazinane 1,1-dioxide] | 0.0001 to 1 | 0.0001 to 1
5 | COc1cc(C(=O)Nc2cnc3[nH]cc(-c4ccc5ncn(C(C)(C)C)c5c4)c3c2)ccn1 [P-245, N-[3-(3-tert-butylbenzimidazol-5-yl)-1H-pyrrolo[2,3-b]pyridin-5-yl]-2-methoxy-pyridine-4-carboxamide] | 0.0001 to 1 | 0.0001 to 1
6 | CC(C)n1cnc2ccc(-c3c[nH]c4ncc(-c5cnn(C(F)F)c5)cc34)cc21 [P-267, 5-[1-(difluoromethyl)pyrazol-4-yl]-3-(3-isopropylbenzimidazol-5-yl)-1H-pyrrolo[2,3-b]pyridine] | 0.0001 to 1 | 0.0001 to 1
7 | c1cc(N2CCOCC2)ccc1-c1cnc2[nH]cc(-c3ccc4ncn(C5CCCNC5)c4c3)c2n1 (stereo not shown) [P-101, 4-[4-[7-[3-(3-piperidyl)benzimidazol-5-yl]-5H-pyrrolo[2,3-b]pyrazin-2-yl]phenyl]morpholine] | 0.0001 to 1 | 0.0001 to 1
8 | COc1cc(-c2cnc3[nH]cc(-c4ccc5ncn(C6CCCNC6)c5c4)c3n2)cc(OC)n1 (stereo not shown) [P-195, 2-(2,6-dimethoxy-4-pyridyl)-7-[3-(3-piperidyl)benzimidazol-5-yl]-5H-pyrrolo[2,3-b]pyrazine] | 0.0001 to 1 | 0.0001 to 1
9 | FC(F)(F)Oc1cccc(C#Cc2cnc3[nH]cc(-c4ccc5ncn(C6CCCNC6)c5c4)c3n2)c1 (stereo not shown) [P-246, 7-[3-(3-piperidyl)benzimidazol-5-yl]-2-[2-[3-(trifluoromethoxy)phenyl]ethynyl]-5H-pyrrolo[2,3-b]pyrazine] | 0.0001 to 1 | 0.0001 to 1
10 | CC(C)S(=O)(=O)Nc1cccc(-c2cnc3[nH]cc(-c4ccc5ncn(C6CCCNC6)c5c4)c3c2)c1 (stereo not shown) [P-215, N-[3-[3-[3-(3-piperidyl)benzimidazol-5-yl]-1H-pyrrolo[2,3-b]pyridin-5-yl]phenyl]propane-2-sulfonamide] | 0.0001 to 1 | 0.0001 to 1
11 | O=S1(=O)CCCCN1c1cccc(-c2cnc3[nH]cc(-c4ccc5ncn(C6CCCNC6)c5c4)c3n2)c1 (stereo not shown) [P-253, 2-[3-[7-[3-(3-piperidyl)benzimidazol-5-yl]-5H-pyrrolo[2,3-b]pyrazin-2-yl]phenyl]thiazinane 1,1-dioxide] | 0.0001 to 1 | 0.0001 to 1
12 | O=C(Nc1cccc(F)c1)c1cnc2[nH]cc(-c3ccc4ncn(C5CCCNC5)c4c3)c2c1 (stereo not shown) [P-178, N-(3-fluorophenyl)-3-[3-(3-piperidyl)benzimidazol-5-yl]-1H-pyrrolo[2,3-b]pyridine-5-carboxamide] | 0.0001 to 1 | 0.0001 to 1
13 | COc1cnc2[nH]cc(-c3ccc4ncn(-c5cccc(C#N)c5)c4c3)c2c1 [P-135, 3-[6-(5-methoxy-1H-pyrrolo[2,3-b]pyridin-3-yl)benzimidazol-1-yl]benzonitrile] | 0.0001 to 1 | 0.0001 to 1
14 | CC(C)n1cnc2ccc(-c3c[nH]c4ncc(-c5cnn(CC(F)(F)F)c5)cc34)cc21 [P-268, 1-isopropyl-6-[5-[1-(2,2,2-trifluoroethyl)pyrazol-4-yl]-1H-pyrrolo[2,3-b]pyridin-3-yl]benzimidazole] | 0.0001 to 1 | 0.0001 to 1
15 | CC(C)S(=O)(=O)Nc1cccc(-c2cnc3[nH]cc(-c4ccc5ncn(C(C)(C)C)c5c4)c3n2)c1 [P-232, N-[3-[7-(3-tert-butylbenzimidazol-5-yl)-5H-pyrrolo[2,3-b]pyrazin-2-yl]phenyl]propane-2-sulfonamide] | 0.0001 to 1 | 0.0001 to 1

Further lines, results first:

Row | IC50 (FLT3-ITD) [µM] | IC50 (FLT3-D835Y) [µM] | Structure (SMILES)
16 | 0.0001 to 1 | 0.0001 to 1 | C#Cc1cnc2[nH]cc(-c3ccc4ncn(C5CCCNC5)c4c3)c2n1 (stereo not shown) [P-270, 2-ethynyl-7-[3-(3-piperidyl)benzimidazol-5-yl]-5H-pyrrolo[2,3-b]pyrazine]
17 | 0.0001 to 1 | 0.0001 to 1 | CCCS(=O)(=O)Nc1cccc(-c2cnc3[nH]cc(-c4ccc5ncn(C6CCCNC6)c5c4)c3c2)c1 (stereo not shown) [P-217, N-[3-[3-[3-(3-piperidyl)benzimidazol-5-yl]-1H-pyrrolo[2,3-b]pyridin-5-yl]phenyl]propane-1-sulfonamide]
18 | 0.0001 to 1 | 0.0001 to 1 | COc1cnc2[nH]cc(-c3ccc4ncn(-c5ccc(Cl)cc5)c4c3)c2c1 [P-104, 1-(4-chlorophenyl)-6-(5-methoxy-1H-pyrrolo[2,3-b]pyridin-3-yl)benzimidazole]
19 | 0.0001 to 1 | 0.0001 to 1 | CC(C)(C)n1cnc2ccc(-c3c[nH]c4ncc(C#Cc5cccc(OC(F)(F)F)c5)nc34)cc21 [P-249, 7-(3-tert-butylbenzimidazol-5-yl)-2-[2-[3-(trifluoromethoxy)phenyl]ethynyl]-5H-pyrrolo[2,3-b]pyrazine]
20 | 0.0001 to 1 | 0.0001 to 1 | C#Cc1cnc2[nH]cc(-c3ccc4ncn(C(C)(C)C)c4c3)c2n1 [P-259, 7-(3-tert-butylbenzimidazol-5-yl)-2-ethynyl-5H-pyrrolo[2,3-b]pyrazine]
21 | 0.0001 to 1 | 0.0001 to 1 | Cn1cnc2ccc(-c3c[nH]c4ncc(-c5cnn(CC(F)(F)F)c5)cc34)cc21 [P-175, 1-methyl-6-[5-[1-(2,2,2-trifluoroethyl)pyrazol-4-yl]-1H-pyrrolo[2,3-b]pyridin-3-yl]benzimidazole]
22 | 0.0001 to 1 | 0.0001 to 1 | COc1ncc(-c2cnc3[nH]cc(-c4ccc5ncn(C(C)(C)C)c5c4)c3c2)cn1 [P-265, 1-(tert-butyl)-6-(5-(2-methoxypyrimidin-5-yl)-1H-pyrrolo[2,3-b]pyridin-3-yl)-1H-benzo[d]imidazole]
23 | 0.0001 to 1 | 0.0001 to 1 | CC(C)(C)n1cnc2ccc(-c3c[nH]c4ncc(-c5cccc(N6CCOCC6)c5)nc34)cc21 [P-226, 4-[3-[7-(3-tert-butylbenzimidazol-5-yl)-5H-pyrrolo[2,3-b]pyrazin-2-yl]phenyl]morpholine]
